The values that follow come from PubChem BioAssay AID192 (DTP/NCI, 2004).

For this experiment, the system named is BDF1 mice, B16 melanoma ip, median survival T/C. The experiment is described as follows: NCI In Vivo Anticancer Drug Screen. Data for tumor model B16 Melanoma (intraperitoneal) in B6D2F1 (BDF1) mice. The conditions noted are these: endpoint: median survival time, higher = longer survival. The method in brief:
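In this screen, activity was judged from survival or tumor size in treated versus vehicle-treated tumor-bearing mice, reported as T/C.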

Setting [1] is: dose: 50.0 mg/kg/injection, schedule: Q01DX009 (ip), vehicle: water.
Where [2] appears, read: dose: 12.5 mg/kg/injection, schedule: Q01DX009 (ip), vehicle: saline with Tween-80.
Where [3] appears, read: dose: 25.0 mg/kg/injection, schedule: Q01DX009 (ip), vehicle: saline with Tween-80.
[4] abbreviates: dose: 50.0 mg/kg/injection, schedule: Q01DX009 (ip), vehicle: saline with Tween-80.
Setting [5] is: dose: 200.0 mg/kg/injection, schedule: Q01DX009 (ip), vehicle: saline with Tween-80.
Where [6] appears, read: dose: 400.0 mg/kg/injection, schedule: Q01DX009 (ip), vehicle: saline with Tween-80.
Where [7] appears, read: dose: 12.5 mg/kg/injection, schedule: Q01DX009 (ip), vehicle: saline.
The mark [8] stands for this setting: dose: 25.0 mg/kg/injection, schedule: Q01DX009 (ip), vehicle: saline.
Setting [9] is: dose: 50.0 mg/kg/injection, schedule: Q01DX009 (ip), vehicle: saline.
Setting [10] is: dose: 100.0 mg/kg/injection, schedule: Q01DX009 (ip), vehicle: saline.
Where [11] appears, read: dose: 100.0 mg/kg/injection, schedule: Q01DX009 (ip), vehicle: saline with Tween-80.
Where [12] appears, read: dose: 12.5 mg/kg/injection, schedule: Q01DX009 (ip), vehicle: Klucel (hydroxypropylcellulose) (HPC).
[13] abbreviates: dose: 25.0 mg/kg/injection, schedule: Q01DX009 (ip), vehicle: Klucel (hydroxypropylcellulose) (HPC).
Where [14] appears, read: dose: 50.0 mg/kg/injection, schedule: Q01DX009 (ip), vehicle: Klucel (hydroxypropylcellulose) (HPC).
[15] abbreviates: dose: 200.0 mg/kg/injection, schedule: Q01DX009 (ip), vehicle: Klucel (hydroxypropylcellulose) (HPC).

“And” between values parts separate entries of the source, which are not always exact repeats. Identical values can stand only once. Inconclusive results and toxic doses are left out.

On to `COc1cc(C2C3=C(CC(C)(C)CC3=O)N(CC(=O)O)C3=C2C(=O)CC(C)(C)C3)ccc1O`, for which the T/C runs as follows: under setting [1], 103 % of control; (dose: 100.0 mg/kg/injection, schedule: Q01DX009 (ip), vehicle: water) 101 % of control; (dose: 200.0 mg/kg/injection, schedule: Q01DX009 (ip), vehicle: water) 115 % of control.

Take `O=C(NCCCl)NCCCl`: the T/C is 94 % of control (dose: 5.0 mg/kg/injection, schedule: Q01DX009 (ip), vehicle: Klucel (hydroxypropylcellulose) (HPC)); 102 % of control (dose: 10.0 mg/kg/injection, schedule: Q01DX009 (ip), vehicle: Klucel (hydroxypropylcellulose) (HPC)); 95 % of control under setting [2]; 88 % of control (dose: 20.0 mg/kg/injection, schedule: Q01DX009 (ip), vehicle: Klucel (hydroxypropylcellulose) (HPC)); 95 % of control under setting [3]; 91 % of control (dose: 40.0 mg/kg/injection, schedule: Q01DX009 (ip), vehicle: Klucel (hydroxypropylcellulose) (HPC)). Further, the T/C under setting [4] was 100 % of control; the T/C (dose: 80.0 mg/kg/injection, schedule: Q01DX009 (ip), vehicle: Klucel (hydroxypropylcellulose) (HPC)) was 102 % of control; the T/C (dose: 160.0 mg/kg/injection, schedule: Q01DX009 (ip), vehicle: Klucel (hydroxypropylcellulose) (HPC)) was 94 % of control; the T/C under setting [5] was 95 % of control; the T/C (dose: 320.0 mg/kg/injection, schedule: Q01DX009 (ip), vehicle: Klucel (hydroxypropylcellulose) (HPC)) is 91 % of control; the T/C under setting [6] was 102 % of control.

As for `CNC(=O)Oc1cccn(C(=O)NC)c1=O`, the T/C was 86 % of control under setting [7]; 91 % of control and 93 % of control under setting [8]; 87 % of control under setting [9]; 88 % of control (dose: 75.0 mg/kg/injection, schedule: Q01DX009 (ip), vehicle: saline); 86 % of control under setting [10].

Regarding `OC1CC2CC1C1C=CCC21` (centres undefined), the T/C by setting is: under setting [4], 95 % of control; under setting [11], 95 % of control; under setting [5], 90 % of control.

For the compound `COc1cccc2c1C(=O)c1c(O)c3c(c(O)c1C2=O)C[C@@](O)(/C(C)=N\NC(=O)CO)C[C@@H]3OC1CC(N)C(O)C(C)O1` (some centres undefined), the T/C runs as follows: (dose: 0.39 mg/kg/injection, schedule: Q01DX009 (ip), vehicle: saline) 117 % of control; (dose: 1.56 mg/kg/injection, schedule: Q01DX009 (ip), vehicle: saline) 162 % of control; (dose: 2.5 mg/kg/injection, schedule: Q01DX001 (ip), vehicle: water) 97 % of control and 100 % of control; (dose: 3.12 mg/kg/injection, schedule: Q01DX009 (ip), vehicle: saline) 173 % of control and 218 % of control; (dose: 6.25 mg/kg/injection, schedule: Q01DX009 (ip), vehicle: saline) 206 % of control and 375 % of control; (dose: 10.0 mg/kg/injection, schedule: Q01DX001 (ip), vehicle: water) 108 % of control and 250 % of control. The T/C is 87 % of control and 102 % of control (dose: 20.0 mg/kg/injection, schedule: Q01DX001 (ip), vehicle: water); 95 % of control (dose: 40.0 mg/kg/injection, schedule: Q01DX001 (ip), vehicle: water).

Consider `O=P(NC12CC3CC(CC(C3)C1)C2)(N1CC1)N1CC1`, for which the T/C runs as follows: (dose: 4.4 mg/kg/injection, schedule: Q01DX009 (ip), vehicle: Klucel (hydroxypropylcellulose) (HPC)) 100 % of control; (dose: 6.6 mg/kg/injection, schedule: Q01DX009 (ip), vehicle: Klucel (hydroxypropylcellulose) (HPC)) 110 % of control.

Consider `C=CCNC(=O)/C=C/C(=O)NCC=C`, for which the T/C was 123 % of control (dose: 25.0 mg/kg/injection, schedule: Q04DX003 (ip), vehicle: saline with Tween-80) and 121 % of control (dose: 100.0 mg/kg/injection, schedule: Q04DX003 (ip), vehicle: saline with Tween-80).

With `O=C1c2cc(Br)cc(Br)c2NCCCC1(Br)Br`, the T/C runs as follows: (dose: 75.0 mg/kg/injection, schedule: Q04DX003 (ip), vehicle: Klucel (hydroxypropylcellulose) (HPC)) 102 % of control; (dose: 150.0 mg/kg/injection, schedule: Q04DX003 (ip), vehicle: Klucel (hydroxypropylcellulose) (HPC)) 95 % of control; (dose: 300.0 mg/kg/injection, schedule: Q04DX003 (ip), vehicle: Klucel (hydroxypropylcellulose) (HPC)) 96 % of control.

Take `CC(Cc1ccccc1)NCCc1c2ccccc2nc2ccccc12` (centres undefined): the T/C by setting is: under setting [12], 92 % of control; under setting [13], 86 % of control and 100 % of control; under setting [14], 90 % of control and 92 % of control; under setting [15], 92 % of control.

Take `Cc1cc2nc(CN)[nH]c2cc1C`: the T/C by setting is: under setting [4], 110 % of control; under setting [11], 97 % of control; under setting [5], 97 % of control.

For `CCC(=O)Oc1ccc(/C=N/NC(N)=S)nc1`, the T/C was 153 % of control under setting [9] and 121 % of control under setting [10].

For `c1ccc2c(CC[n+]3cccc(C4OCCO4)c3)c[nH]c2c1`, the T/C was 94 % of control under setting [7], 100 % of control under setting [8] and 100 % of control under setting [9].

For the compound `CCOC(CCC#N)c1ccc(Cl)cc1` (centres undefined), the T/C is, setting by setting: under setting [11], 98 % of control; under setting [5], 96 % of control; under setting [6], 97 % of control.

For the compound `O=[N+]([O-])c1cc(Br)cc(Br)c1S(=O)(=O)O`, the T/C by setting is: (dose: 100.0 mg/kg/injection, schedule: Q04DX003 (ip), vehicle: saline) 100 % of control; (dose: 200.0 mg/kg/injection, schedule: Q04DX003 (ip), vehicle: saline) 108 % of control; (dose: 400.0 mg/kg/injection, schedule: Q04DX003 (ip), vehicle: saline) 104 % of control.

For the compound `CC/C=C/c1cccc(OC)c1`, the T/C (dose: 100.0 mg/kg/injection, schedule: Q01DX009 (ip), vehicle: Klucel (hydroxypropylcellulose) (HPC)) is 96 % of control; the T/C under setting [15] was 96 % of control; the T/C (dose: 400.0 mg/kg/injection, schedule: Q01DX009 (ip), vehicle: Klucel (hydroxypropylcellulose) (HPC)) is 92 % of control.

Turning to `COc1ccc2c(Cc3ccccc3)cncc2c1O`, the T/C reads like this: (dose: 6.25 mg/kg/injection, schedule: Q01DX009 (ip), vehicle: Klucel (hydroxypropylcellulose) (HPC)) 97 % of control; under setting [12], 99 % of control; under setting [13], 102 % of control; under setting [14], 104 % of control.

As to `CC1OC(C)(C)OC1C(=O)O` (centres undefined), the T/C runs as follows: (dose: 6.25 mg/kg/injection, schedule: Q01DX009 (ip), vehicle: water) 96 % of control; (dose: 12.5 mg/kg/injection, schedule: Q01DX009 (ip), vehicle: water) 119 % of control; (dose: 25.0 mg/kg/injection, schedule: Q01DX009 (ip), vehicle: water) 104 % of control; under setting [1], 105 % of control.

As for `C=C(C)C(=O)O[C@H]1CC2=C[C@@H](C[C@@]3(C)O[C@@H]3[C@H]3OC(=O)C(=C)[C@@H]31)OC2=O`, the T/C (dose: 3.75 mg/kg/injection, schedule: Q01DX009 (ip), vehicle: Klucel (hydroxypropylcellulose) (HPC)) was 89 % of control; the T/C (dose: 7.5 mg/kg/injection, schedule: Q01DX009 (ip), vehicle: Klucel (hydroxypropylcellulose) (HPC)) was 97 % of control; the T/C (dose: 15.0 mg/kg/injection, schedule: Q01DX009 (ip), vehicle: Klucel (hydroxypropylcellulose) (HPC)) was 92 % of control.

As for `Cc1cccc(C)c1NC(=O)c1ccccc1`, the T/C is 93 % of control under setting [7], 89 % of control under setting [13], 100 % of control under setting [14] and 90 % of control under setting [9].

For the compound `O=C1C(=O)c2ccccc2C(O)=C1CCCc1ccc(C2CCCCCC2)cc1`, the T/C was 123 % of control under setting [3] and 114 % of control under setting [4].

As for `O=[N+]([O-])c1ccc(C=C2C(Cl)=C(Cl)C(Cl)=C2Cl)cc1`, the T/C is 101 % of control (dose: 3.13 mg/kg/injection, schedule: Q01DX009 (ip), vehicle: saline with Tween-80); 91 % of control (dose: 6.25 mg/kg/injection, schedule: Q01DX009 (ip), vehicle: saline with Tween-80); 89 % of control under setting [2].
